These results are taken from US7442699B2, “Anilinopyrimidine derivatives as IKK inhibitors and compositions and methods related thereto” (Signal Pharmaceuticals, LLC, priority 2000, dated 2008).

SMILES strings stand for the structures. pIC50: −log10 of the molar value. Where two headings read alike, the source gives them in different places.

In the assay the target is T1, IKK-2 (Homo sapiens, UniProt O14920, S177E/S181E).
T1 construct: His6
T1 sequence (O14920 1-756 S177E/S181E): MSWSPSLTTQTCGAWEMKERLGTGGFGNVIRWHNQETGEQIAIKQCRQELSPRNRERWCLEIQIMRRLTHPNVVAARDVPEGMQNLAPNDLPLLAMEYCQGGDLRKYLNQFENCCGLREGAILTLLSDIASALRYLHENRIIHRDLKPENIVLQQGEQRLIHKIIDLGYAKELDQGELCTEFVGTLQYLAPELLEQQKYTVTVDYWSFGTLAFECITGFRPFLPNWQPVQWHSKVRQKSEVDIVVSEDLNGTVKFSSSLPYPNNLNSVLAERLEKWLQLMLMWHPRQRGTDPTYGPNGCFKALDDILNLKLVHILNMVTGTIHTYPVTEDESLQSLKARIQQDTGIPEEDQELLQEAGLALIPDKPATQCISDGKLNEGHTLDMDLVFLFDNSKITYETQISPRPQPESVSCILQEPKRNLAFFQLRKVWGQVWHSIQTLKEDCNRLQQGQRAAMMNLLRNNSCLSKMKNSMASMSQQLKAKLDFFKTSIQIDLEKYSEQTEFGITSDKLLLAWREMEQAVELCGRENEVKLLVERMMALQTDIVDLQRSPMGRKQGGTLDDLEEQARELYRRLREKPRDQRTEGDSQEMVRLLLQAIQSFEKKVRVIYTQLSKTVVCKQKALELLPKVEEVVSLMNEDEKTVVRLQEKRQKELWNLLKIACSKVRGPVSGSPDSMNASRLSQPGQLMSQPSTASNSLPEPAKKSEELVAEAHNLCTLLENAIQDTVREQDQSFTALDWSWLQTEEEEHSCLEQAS
Briefly: IKK-2 Enzyme Assay. It counts as biochemical. The method, then: The mixture is preincubated for 15 minutes at room temperature. […] After 30 minutes the precipitate is harvested onto a filter plate to which 50 μl of scintillation fluid is added and then quantified by a scintillation counter.

Where [1] appears, read: more preferred compounds, 500 nM or less, read-out: IC50 value in the IKK-2 Enzyme Assay.
Setting [2] is: preferred compounds, 1 μM or less, read-out: IC50 value in the IKK-2 Enzyme Assay.

For the molecule `COCC(=O)NC1CCN(C(=O)c2ccc(Nc3nccc(-c4ccc(Cl)cc4)n3)cc2)CC1` [Compound 20-6], the pIC50 – broadly, −log10 of the IC50, conventionally taken in molar units – reads like this: under setting [1], no less than 6.30; under setting [2], no less than 6.00.

On to `NC(=O)c1ccc(Nc2nccc(-c3ccc(S(=O)(=O)CCCO)cc3)n2)cc1` [Compound 3-15], for which, under setting [2], the pIC50 is no less than 6.00. The same measure, in the same setting: under `CCCNC(=O)c1ccc(Nc2nccc(-c3ccc(Cl)cc3)n2)cc1` [Compound 17-132] stands no less than 6.00.

In the case of `CCOC(=O)N1CCN(C(=O)c2ccc(Nc3nccc(-c4ccc(Cl)cc4)n3)cc2)CC1` [Compound 17-137], the pIC50 runs as follows: under setting [1], no less than 6.30; under setting [2], no less than 6.00. Consider `O=C(c1ccc(Nc2nccc(-c3ccc(Cl)cc3)n2)cc1)N1CCC2(CC1)OCCO2` [Compound 17-139], for which the pIC50 reads like this: (IC50 value in the IKK-2 Enzyme Assay, more preferred compounds, 500 nM or less) no less than 6.30; (IC50 value in the IKK-2 Enzyme Assay, preferred compounds, 1 μM or less) no less than 6.00. Take `O=C(NC1CCN(C(=O)c2ccc(Nc3nccc(-c4ccc(Cl)cc4)n3)cc2)CC1)N1CCOCC1` [Compound 20-4]: the pIC50 is, setting by setting: under setting [1], no less than 6.30; under setting [2], no less than 6.00. As to `CCN(C(C)=O)C1CCN(C(=O)c2ccc(Nc3nccc(-c4ccc(Cl)cc4)n3)cc2)C1` (stereo not drawn) [Compound 17-162], the pIC50 is, setting by setting: under setting [1], no less than 6.30; under setting [2], no less than 6.00. The matching figures for `CN(C)C(=O)NC1CCN(C(=O)c2ccc(Nc3nccc(-c4ccc(Cl)cc4)n3)cc2)CC1` [Compound 20-5]: no less than 6.30 and no less than 6.00. Taken in the same sequence, the figures for `O=C(NCCCN1CCOCC1)c1ccc(Nc2nccc(-c3ccc(Cl)cc3)n2)cc1` [Compound 17-86] were no less than 6.30 and no less than 6.00. The matching figures for `Cc1noc(C)c1C(=O)NC1CCN(C(=O)c2ccc(Nc3nccc(-c4ccc(Cl)cc4)n3)cc2)CC1` [Compound 20-2]: no less than 6.30 and no less than 6.00. Take `CN1CCN(C(=O)c2ccc(Nc3nccc(-c4ccc(Cl)cc4)n3)cc2)CC1` [Compound 17-127]: the pIC50 by setting is: under setting [1], no less than 6.30; under setting [2], no less than 6.00. The matching figures for `NC(=O)c1ccc(Nc2nccc(-c3ccc(S(=O)(=O)c4ccncc4)cc3)n2)cc1` [Compound 3-8]: no less than 6.30 and no less than 6.00. In the case of `NC(=O)c1ccc(Nc2nccc(-c3ccc(S(=O)(=O)c4ccccc4)cc3)n2)cc1` [Compound 3-21], the pIC50 is no less than 6.30 under setting [1] and no less than 6.00 under setting [2]. Consider `CCN(CC)CCCNC(=O)c1ccc(Nc2nccc(-c3ccc(Cl)cc3)n2)cc1` [Compound 17-153], for which, under setting [2], the pIC50 is no less than 6.00. Take `NC(=O)c1ccc(Nc2nccc(-c3ccc(SCCCO)cc3)n2)cc1` [Compound 3-14]: the pIC50 is no less than 6.30 under setting [1] and no less than 6.00 under setting [2].

Turning to `O=C(NCCCn1ccnc1)c1ccc(Nc2nccc(-c3ccc(Cl)cc3)n2)cc1` [Compound 17-21], the pIC50 under setting [2] was no less than 6.00. On to `O=C(NCCN1CCOCC1)c1ccc(Nc2nccc(-c3ccc(Cl)cc3)n2)cc1` [Compound 17-142], for which the pIC50 under setting [2] is no less than 6.00. Consider `CNC(=O)c1ccc(Nc2nccc(-c3ccc(Cl)cc3)n2)cc1` [Compound 17-3], for which the pIC50 under setting [2] was no less than 6.00.
